Results: US20230293644A1, “ANTI-INFLAMMATORY PEPTIDES AND COMPOSITION COMPRISING THE SAME” (Gemvax & KAEL Co., Ltd., priority 2012, published 2023)

Test system: TNF-α
Experiment: Screening of TNF-α inhibitory effect, LPS-stimulated PBMC-derived monocytes (Example 2)
Assay type: cell-based, human
Settings: 4 uM peptide, 2 hrs, LPS 10 ng/ml; for TNF-α inhibiting effect compared to the group treated with LPS and estrogen: estrogen 20 nM
Procedure: PBMC (peripheral blood mononuclear cells) layer was separated from blood samples (50 ml) collected in healthy subjects using Biocoll Separating Solution (Biochrom AG, Berlin, Germany). The collected PBMC were enriched in RPMI 1640 medium containing 20% human serum for 30 mins, and then transferred to 100-mm polystyeren cell culture plate coated with human serum for incubation for 2 hrs at 37° C., 5% CO^2 incubator. Monocytes were detached from the bottom of the plate using cold PBS, and incubated to reach the number of 1 × 10^5 cell/well in 96-well plate with RPMI 1640 medium (supplemented with penicillinstreptomycin; […], human serum; 20%) over night.
ELISA was performed to find out how the peptides of the PEP RIA series influence TNF-α level. PBMC-derived monocytes were incubated to reach the number of 1 × 10^5 cells per well in a 96-well plate and then treated with LPS (lipopolysaccharide; 10 ng/ml, Sigma) for 2 hours. To the monocytes that were washed three times with PBS, OPTI-MEM culture medium was added to induce cell starvation for an hour, 4 µM of the peptide was taken out and incubated for 2 hours. There were three negative control groups. The first group was not treated with anything. The second group that was treated with estrogen (in this experiment, estradiol was used as a kind of estrogen). The third group was treated with LPS (10 ng/ml) or with LPS (10 ng/ml) as well as estrogen (20 nM). PEP1 that was confirmed to have TNF-α inhibiting activity was used as a positive control to measure TNF-α inhibiting activity. After incubation, TNF-α was measured by following the ELISA kit manual (R&D, Minneapolis, MN, USA). The details of quantification method can be found in Experiment 2.2 of Example 1.
Using the method stated above, Peptides with TNF-α inhibiting effect were screened. PBMC-derived monocytes were stimulated with LPS (10 ng/ml), which is endotoxin, for 2 hours and were induced to starve by adding OPTI-MEM for 1 hour. After that, 4 uM of 179 peptides were treated and incubated for 2 hrs. The amount of TNF-α in the cell culture medium was measured using ELISA, and the peptides with TNF-α inhibiting effect were screened by comparing to the negative and positive controls (FIG. 3 to FIG. 23).

| Substance | TNF-α inhibiting effect compared to the control group treated with only LPS | TNF-α inhibiting effect compared to the group treated with LPS and estrogen |
| --- | --- | --- |
| HREARPALLTSRLRFIPKPDGLRPI (listed as Homo sapiens) [SEQ ID NO: 63] | showed TNF-α inhibiting effect | showed TNF-α inhibiting effect |
| IPK [SEQ ID NO: 103] | showed TNF-α inhibiting effect | showed TNF-α inhibiting effect |
| LLTSR (listed as Homo sapiens) [SEQ ID NO: 150] | showed TNF-α inhibiting effect |  |
| LLTSRL (listed as Homo sapiens) [SEQ ID NO: 108] | showed TNF-α inhibiting effect | showed TNF-α inhibiting effect |
| LLTSRLR (listed as Homo sapiens) [SEQ ID NO: 149] | showed TNF-α inhibiting effect | showed TNF-α inhibiting effect |
| LLTSRLRF (listed as Homo sapiens) [SEQ ID NO: 148] | showed TNF-α inhibiting effect | showed TNF-α inhibiting effect |
| LRF [SEQ ID NO: 176] | showed TNF-α inhibiting effect |  |
| LRFI (listed as Homo sapiens) [SEQ ID NO: 175] | showed TNF-α inhibiting effect |  |
| LRFIP (listed as Homo sapiens) [SEQ ID NO: 174] | showed TNF-α inhibiting effect | showed TNF-α inhibiting effect |
| LRFIPK (listed as Homo sapiens) [SEQ ID NO: 100] | showed TNF-α inhibiting effect | showed TNF-α inhibiting effect |
| LSEAEVRQHREARPALLTSRLRFIPK (listed as Homo sapiens) [SEQ ID NO: 11] | showed TNF-α inhibiting effect | showed TNF-α inhibiting effect |
| LTS [SEQ ID NO: 158] | showed TNF-α inhibiting effect |  |
| LTSRL (listed as Homo sapiens) [SEQ ID NO: 157] | showed TNF-α inhibiting effect | showed TNF-α inhibiting effect |
| LTSRLR (listed as Homo sapiens) [SEQ ID NO: 156] | showed TNF-α inhibiting effect | showed TNF-α inhibiting effect |
| LTSRLRFIPK (listed as Homo sapiens) [SEQ ID NO: 96] | showed TNF-α inhibiting effect | showed TNF-α inhibiting effect |
| PALLTSRLRFI (listed as Homo sapiens) [SEQ ID NO: 131] | showed TNF-α inhibiting effect |  |
| QHREARPALLTSRLRFIPKP (listed as Homo sapiens) [SEQ ID NO: 20] | showed TNF-α inhibiting effect | showed TNF-α inhibiting effect |
| QHREARPALLTSRLRFIPKPD (listed as Homo sapiens) [SEQ ID NO: 21] | showed TNF-α inhibiting effect |  |
| QHREARPALLTSRLRFIPKPDGLRPI (listed as Homo sapiens) [SEQ ID NO: 62] | showed TNF-α inhibiting effect | showed TNF-α inhibiting effect |
| REARPALLTSRLRFIPKPD (listed as Homo sapiens) [SEQ ID NO: 19] | showed TNF-α inhibiting effect | showed TNF-α inhibiting effect |
| REARPALLTSRLRFIPKPDGLRPI (listed as Homo sapiens) [SEQ ID NO: 64] | showed TNF-α inhibiting effect | showed TNF-α inhibiting effect |

| Substance | TNF-α inhibiting effect compared to the control group treated with only LPS | TNF-α inhibiting effect compared to the group treated with LPS and estrogen |
| --- | --- | --- |
| RELSEAEVRQHREARPALLTSRLRFIPK (listed as Homo sapiens) [SEQ ID NO: 13] | showed TNF-α inhibiting effect |  |
| RFI [SEQ ID NO: 178] | showed TNF-α inhibiting effect |  |
| RFIP (listed as Homo sapiens) [SEQ ID NO: 177] | showed TNF-α inhibiting effect |  |
| RFIPK (listed as Homo sapiens) [SEQ ID NO: 101] | showed TNF-α inhibiting effect | showed TNF-α inhibiting effect |
| RLR [SEQ ID NO: 173] | showed TNF-α inhibiting effect | showed TNF-α inhibiting effect |
| RLRF (listed as Homo sapiens) [SEQ ID NO: 172] | showed TNF-α inhibiting effect | showed TNF-α inhibiting effect |
| RLRFIPK (listed as Homo sapiens) [SEQ ID NO: 99] | showed TNF-α inhibiting effect | showed TNF-α inhibiting effect |
| RPALLTSR (listed as Homo sapiens) [SEQ ID NO: 124] | showed TNF-α inhibiting effect |  |
| RPALLTSRLRFI (listed as Homo sapiens) [SEQ ID NO: 105] | showed TNF-α inhibiting effect |  |
| RPALLTSRLRFIPK (listed as Homo sapiens) [SEQ ID NO: 92] | showed TNF-α inhibiting effect |  |
| RQHREARPALLTSRLRFIPKP (listed as Homo sapiens) [SEQ ID NO: 25] | showed TNF-α inhibiting effect | showed TNF-α inhibiting effect |
| RQHREARPALLTSRLRFIPKPD (listed as Homo sapiens) [SEQ ID NO: 26] | showed TNF-α inhibiting effect | showed TNF-α inhibiting effect |
| RQHREARPALLTSRLRFIPKPDG (listed as Homo sapiens) [SEQ ID NO: 27] | showed TNF-α inhibiting effect | showed TNF-α inhibiting effect |
| RQHREARPALLTSRLRFIPKPDGL (listed as Homo sapiens) [SEQ ID NO: 28] | showed TNF-α inhibiting effect |  |
| SEAEVRQHREARPALLTSRLRFIPK (listed as Homo sapiens) [SEQ ID NO: 10] | showed TNF-α inhibiting effect | showed TNF-α inhibiting effect |
| SRLR (listed as Homo sapiens) [SEQ ID NO: 168] | showed TNF-α inhibiting effect |  |
| SRLRF (listed as Homo sapiens) [SEQ ID NO: 167] | showed TNF-α inhibiting effect | showed TNF-α inhibiting effect |
| SRLRFI (listed as Homo sapiens) [SEQ ID NO: 166] | showed TNF-α inhibiting effect | showed TNF-α inhibiting effect |
| SRLRFIP (listed as Homo sapiens) [SEQ ID NO: 165] | showed TNF-α inhibiting effect | showed TNF-α inhibiting effect |
| SRLRFIPK (listed as Homo sapiens) [SEQ ID NO: 98] | showed TNF-α inhibiting effect | showed TNF-α inhibiting effect |
| TSR [SEQ ID NO: 164] | showed TNF-α inhibiting effect | showed TNF-α inhibiting effect |
